Results reported in PubChem BioAssay (NCI).
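The compound was tested at five concentrations on cells cultured in 96-well plates, with a 48-hour exposure period. TGI: total growth inhibition.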

What was measured:
Experiment in all cases: growth of human tumour cells (NCI), 48 h
[1] = system: A549 NSCLC
[2] = system: CCRF-CEM leukemia
[3] = system: ACHN renal
[4] = system: K-562 leukemia
[5] = system: SN12C renal
[6] = system: DMS 114 small cell lung
[7] = system: HCC-2998 colon
[8] = system: UACC-62 melanoma
[9] = system: EKVX NSCLC
[10] = system: SNB-78 CNS
[11] = system: SNB-19 CNS
[12] = system: DMS 273 small cell lung
[13] = system: OVCAR-3 ovarian
[14] = system: MOLT-4 leukemia
[15] = system: HCT-116 colon
[16] = system: SW-620 colon
[17] = system: OVCAR-5 ovarian
[18] = system: OVCAR-4 ovarian
[19] = system: COLO 205 colon
[20] = system: 786-0 renal
[21] = system: RPMI-8226 leukemia
[22] = system: NCI-H522 lung
[23] = system: NCI-H460 lung
[24] = system: IGROV1 ovarian
[25] = system: OVCAR-8 ovarian
[26] = system: NCI-H23 lung
[27] = system: UACC-257 melanoma
[28] = system: SNB-75 CNS
[29] = system: HT29 colon
[30] = system: SK-OV-3 ovarian
[31] = system: UO-31 renal
[32] = system: LOX IMVI melanoma
[33] = system: SK-MEL-2 melanoma
[34] = system: TK-10 renal
[35] = system: DLD-1 colon
[36] = system: LXFL 529 NSCLC
[37] = system: A498 renal
[38] = system: MALME-3M melanoma
[39] = system: HOP-92 NSCLC
[40] = system: HL-60(TB) leukemia
[41] = system: RXF 393 renal
[42] = system: KM20L2 colon
[43] = system: SF-539 CNS
[44] = system: KM12 colon
[45] = system: SF-295 CNS
[46] = system: M19-MEL melanoma
[47] = system: CAKI-1 renal
[48] = system: U251 CNS
[49] = system: SK-MEL-28 melanoma
[50] = system: SK-MEL-5 melanoma
[51] = system: NCI-H226 lung
[52] = system: HOP-18 NSCLC
[53] = system: HCT-15 colon
[54] = system: SF-268 CNS
[55] = system: HOP-62 NSCLC
[56] = system: M14 melanoma
[57] = system: SR leukemia

SMILES: CC12CCC3(C1)[C@H](CC2=O)C[C@@H](OC(=O)c1ccccc1)C1C(C)(CO)CCC[C@@]13C (stereo not given in full)
- TGI [1]: 97 µM
- TGI [2]: > 54.1 µM
- TGI [3]: > 100 µM
- TGI [4]: > 100 µM
- TGI [5]: > 100 µM
- TGI [6]: 19.5 µM
- TGI [7]: > 100 µM
- TGI [8]: > 89 µM
- TGI [9]: > 100 µM
- TGI [10]: > 100 µM
- TGI [11]: > 100 µM
- TGI [12]: 13.3 µM
- TGI [13]: > 52.3 µM
- TGI [14]: 19.7 µM
- TGI [15]: > 100 µM
- TGI [16]: > 100 µM
- TGI [17]: 95.7 µM
- TGI [18]: > 72.1 µM
- TGI [19]: 27.1 µM
- TGI [20]: > 100 µM
- TGI [21]: 12 µM
- TGI [22]: 17.9 µM
- TGI [23]: > 45.8 µM
- TGI [24]: > 100 µM
- TGI [25]: > 100 µM
- TGI [26]: > 100 µM
- TGI [27]: 23.8 µM
- TGI [28]: > 100 µM
- TGI [29]: > 100 µM
- TGI [30]: > 89.1 µM
- TGI [31]: 61.7 µM
- TGI [32]: > 100 µM
- TGI [33]: > 90.8 µM
- TGI [34]: > 100 µM
- TGI [35]: > 100 µM
- TGI [36]: > 100 µM
- TGI [37]: > 100 µM
- TGI [38]: > 100 µM
- TGI [39]: 58.3 µM
- TGI [40]: 8.38 µM
- TGI [41]: 47.6 µM
- TGI [42]: > 100 µM
- TGI [43]: > 100 µM
- TGI [44]: > 100 µM
- TGI [45]: > 38.9 µM
- TGI [46]: > 100 µM
- TGI [47]: > 27.2 µM
- TGI [48]: > 100 µM
- TGI [49]: > 100 µM
- TGI [50]: 1.71 µM
- TGI [51]: 65.9 µM
- TGI [52]: > 100 µM
- TGI [53]: > 100 µM
- TGI [54]: > 100 µM
- TGI [55]: > 100 µM
- TGI [56]: > 100 µM

SMILES: N#CC(C#N)=c1ccc(=C2N3CCCC3CN2C23CC4CC(CC(C4)C2)C3)cc1 (stereo not given)
- TGI [1]: > 100 µM
- TGI [2]: > 100 µM
- TGI [3]: > 100 µM
- TGI [4]: > 100 µM
- TGI [5]: > 100 µM
- TGI [6]: > 100 µM
- TGI [7]: > 100 µM
- TGI [8]: > 100 µM
- TGI [9]: > 100 µM
- TGI [10]: > 100 µM
- TGI [57]: > 100 µM
- TGI [11]: > 100 µM
- TGI [12]: > 100 µM
- TGI [13]: > 100 µM
- TGI [14]: > 100 µM
- TGI [15]: > 100 µM
- TGI [16]: > 100 µM
- TGI [17]: > 100 µM
- TGI [19]: > 100 µM
- TGI [20]: > 100 µM
- TGI [21]: > 100 µM
- TGI [22]: > 100 µM
- TGI [23]: > 100 µM
- TGI [24]: > 100 µM
- TGI [25]: > 100 µM
- TGI [26]: > 100 µM
- TGI [27]: > 100 µM
- TGI [28]: 78.8 µM
- TGI [29]: > 100 µM
- TGI [30]: > 100 µM
- TGI [31]: > 100 µM
- TGI [32]: > 100 µM
- TGI [33]: > 100 µM
- TGI [34]: > 100 µM
- TGI [35]: > 100 µM
- TGI [36]: > 100 µM
- TGI [38]: > 100 µM
- TGI [39]: > 100 µM
- TGI [40]: > 100 µM
- TGI [41]: > 100 µM
- TGI [42]: > 100 µM
- TGI [43]: > 100 µM
- TGI [44]: > 100 µM
- TGI [45]: > 100 µM
- TGI [46]: > 100 µM
- TGI [48]: > 100 µM
- TGI [49]: > 100 µM
- TGI [50]: > 100 µM
- TGI [51]: > 100 µM
- TGI [52]: > 100 µM
- TGI [53]: > 100 µM
- TGI [54]: > 100 µM
- TGI [55]: > 100 µM
- TGI [56]: > 100 µM

SMILES: O=C1C=C(Nc2ccccc2C(=O)c2ccccc2)c2ccccc2C1=O
- TGI [1]: > 100 µM
- TGI [3]: > 100 µM
- TGI [5]: > 100 µM
- TGI [6]: > 100 µM
- TGI [7]: > 100 µM
- TGI [8]: > 100 µM
- TGI [9]: > 100 µM
- TGI [10]: > 100 µM
- TGI [57]: > 100 µM
- TGI [11]: > 100 µM
- TGI [12]: > 100 µM
- TGI [13]: > 100 µM
- TGI [15]: > 100 µM
- TGI [16]: > 100 µM
- TGI [17]: > 100 µM
- TGI [18]: > 100 µM
- TGI [19]: > 100 µM
- TGI [20]: > 100 µM
- TGI [21]: > 100 µM
- TGI [22]: 55.9 µM
- TGI [23]: > 100 µM
- TGI [24]: > 100 µM
- TGI [25]: > 100 µM
- TGI [26]: > 100 µM
- TGI [27]: 27.9 µM
- TGI [28]: > 100 µM
- TGI [29]: > 100 µM
- TGI [30]: > 100 µM
- TGI [31]: > 100 µM
- TGI [33]: > 100 µM
- TGI [35]: > 100 µM
- TGI [36]: > 100 µM
- TGI [37]: > 100 µM
- TGI [38]: > 100 µM
- TGI [39]: > 100 µM
- TGI [41]: > 100 µM
- TGI [42]: > 100 µM
- TGI [43]: > 100 µM
- TGI [44]: > 100 µM
- TGI [45]: > 100 µM
- TGI [46]: 33.2 µM
- TGI [47]: > 100 µM
- TGI [48]: > 100 µM
- TGI [49]: > 100 µM
- TGI [51]: > 100 µM
- TGI [52]: > 100 µM
- TGI [53]: > 100 µM
- TGI [54]: > 100 µM
- TGI [55]: > 100 µM
- TGI [56]: > 100 µM
